# From patent publication US10435371B2, “Multifunctional aminoquinoline therapeutic agent” (LOHOCLA RESEARCH CORPORATION, priority 2014, dated 2019)
# Assays:
# [1] = target: GABA site, GABA-A Receptor; assay: PDSP radioligand displacement, [^3H]Muscimol; set-up: species or system rat; conditions: read-out: Binding constant Ki, GABA site, GABA-A Receptor
# D2 (Dopamine Rs) = D2 (Dopamine Rs) (Homo sapiens, UniProt P14416); assay: PDSP radioligand binding
# [2] = test system: rats treated with Complete Freund's Adjuvant; assay: Naltrindole reversal of the effect of DCUKA on CFA-induced neuropathic pain; type: in vivo, rat; conditions: DCUKA 50 mg/kg oral plus intraplantar saline, 2 days after CFA; FIG. 12
# Method: Rats were tested for baseline mechanical pain threshold (von Frey test) and given an intraplantar injection of Complete Freunds Adjuvant (CFA) in the left hind paw.
# [3] = target: β2 (Adrenergic Rs (beta adrenergic)) (Homo sapiens, UniProt P07550); assay: PDSP radioligand binding
# β2 (Adrenergic Rs (beta adrenergic)), sequence (P07550 whole entry): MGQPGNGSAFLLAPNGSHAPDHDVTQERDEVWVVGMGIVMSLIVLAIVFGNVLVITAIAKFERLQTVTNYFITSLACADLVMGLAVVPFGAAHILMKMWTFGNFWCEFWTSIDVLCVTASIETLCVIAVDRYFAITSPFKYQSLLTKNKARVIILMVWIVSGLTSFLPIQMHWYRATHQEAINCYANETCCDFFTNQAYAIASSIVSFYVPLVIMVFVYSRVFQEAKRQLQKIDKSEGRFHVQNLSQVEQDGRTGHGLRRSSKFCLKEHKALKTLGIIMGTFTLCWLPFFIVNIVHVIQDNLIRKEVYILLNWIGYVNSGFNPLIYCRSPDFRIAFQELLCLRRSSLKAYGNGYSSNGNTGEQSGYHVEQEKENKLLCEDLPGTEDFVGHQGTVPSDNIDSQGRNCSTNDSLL
# D1 (Dopamine Rs) = D1 (Dopamine Rs) (Homo sapiens, UniProt P21728); assay: PDSP radioligand binding
# D1 (Dopamine Rs), sequence (P21728 whole entry): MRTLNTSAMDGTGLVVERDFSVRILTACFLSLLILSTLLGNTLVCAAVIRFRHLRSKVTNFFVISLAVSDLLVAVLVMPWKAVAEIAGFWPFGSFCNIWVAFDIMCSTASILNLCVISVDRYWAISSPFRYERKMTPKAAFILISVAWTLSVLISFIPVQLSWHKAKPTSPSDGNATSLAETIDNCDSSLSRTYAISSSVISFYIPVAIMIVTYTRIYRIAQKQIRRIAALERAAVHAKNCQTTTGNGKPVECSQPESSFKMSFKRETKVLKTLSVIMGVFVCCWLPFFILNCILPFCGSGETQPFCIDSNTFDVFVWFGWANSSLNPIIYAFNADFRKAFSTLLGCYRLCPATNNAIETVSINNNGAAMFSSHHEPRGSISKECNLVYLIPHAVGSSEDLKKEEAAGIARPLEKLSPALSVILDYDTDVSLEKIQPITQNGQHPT
# [4] = target: M1 (Muscarinic Cholinergic Rs) (Homo sapiens, UniProt P11229); assay: PDSP radioligand binding
# M1 (Muscarinic Cholinergic Rs), sequence (P11229 whole entry): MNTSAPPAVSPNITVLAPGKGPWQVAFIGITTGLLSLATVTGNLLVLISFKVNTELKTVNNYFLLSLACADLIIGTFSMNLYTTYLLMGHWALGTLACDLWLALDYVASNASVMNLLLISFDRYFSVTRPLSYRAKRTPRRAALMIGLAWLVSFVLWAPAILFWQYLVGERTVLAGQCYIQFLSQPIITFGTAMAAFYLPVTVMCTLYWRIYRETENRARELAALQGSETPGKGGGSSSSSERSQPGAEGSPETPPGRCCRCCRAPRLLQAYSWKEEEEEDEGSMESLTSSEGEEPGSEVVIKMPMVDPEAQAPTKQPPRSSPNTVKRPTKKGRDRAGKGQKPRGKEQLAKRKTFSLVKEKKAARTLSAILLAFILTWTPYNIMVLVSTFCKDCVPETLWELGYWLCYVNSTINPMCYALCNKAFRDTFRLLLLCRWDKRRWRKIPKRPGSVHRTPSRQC
# ethanol dependent rats = assay: Operant responding for alcohol in ethanol vapor-exposed dependent rats; type: in vivo, rat; conditions: ethanol vapor-exposed rats; FIG. 18
# Text: This example illustrates that ethanol dependent rats are motivated to work for ethanol reward during a period of forced abstinence and that DCUK-OEt reduces responding for the alcohol reward.
# The methods used in this study are extensively described in (Vendruscolo et al., 2012). The rats were first trained to self-administer ethanol in an operant chamber. The rats were given free-choice access to alcohol (10% w/v) and water for 1 day in their home cages to habituate them to the taste of alcohol. The rats were then subjected to an overnight session in the operant chambers with access to one lever that delivered water (FR1). Food was available ad libitum during this training. After 1 day off, the rats were subjected to a 2 hour session (FR1) for 1 day and a 1 hour session (FR1) the next day, with one lever delivering alcohol. All of the subsequent sessions lasted 30 minutes, and two levers were available (left lever: water; right lever: alcohol). Once trained, the rats were made dependent by chronic, intermittent exposure to alcohol vapors (Gilpin et al., 2008). They underwent cycles of 14 hours of ethanol exposure (blood alcohol levels during vapor exposure ranged between 150 and 250 mg %) and 10 hours in the absence of ethanol vapor, during which behavioral testing for acute withdrawal occurred (i.e., 6-8 hours after vapor was turned off, when brain and blood alcohol levels were negligible). Nondependent rats were those not exposed to alcohol vapor. Pharmacological testing occurred after at least 2 months of vapor exposure, when full dependence was observed. DCUKA-OEt was administered i.p. at the doses specified in FIG. 18, sixty minutes prior to placing the animal in the operant chamber. The vehicle for DCUK-OEt was injected in certain animals as a control.
# 5-HT3 (Serotonin Rs) = 5-HT3 (Serotonin Rs) (Homo sapiens, UniProt P46098); assay: PDSP radioligand binding
# 5-HT3 (Serotonin Rs), sequence (P46098 24-478): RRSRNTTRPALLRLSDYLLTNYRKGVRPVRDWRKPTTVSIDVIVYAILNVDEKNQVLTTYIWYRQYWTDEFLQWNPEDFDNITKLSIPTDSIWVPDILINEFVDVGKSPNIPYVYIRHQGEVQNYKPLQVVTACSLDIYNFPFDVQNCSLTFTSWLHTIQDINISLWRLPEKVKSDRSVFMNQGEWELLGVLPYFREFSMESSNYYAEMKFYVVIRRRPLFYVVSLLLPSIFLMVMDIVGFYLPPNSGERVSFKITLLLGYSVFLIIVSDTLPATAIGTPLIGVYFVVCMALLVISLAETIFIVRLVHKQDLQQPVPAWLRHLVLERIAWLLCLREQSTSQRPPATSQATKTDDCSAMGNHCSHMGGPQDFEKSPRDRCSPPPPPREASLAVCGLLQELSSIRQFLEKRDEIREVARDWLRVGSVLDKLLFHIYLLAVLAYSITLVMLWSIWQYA
# CB1 Receptor = target: T1, CB1 Receptor (Homo sapiens, UniProt P21554); assay: PDSP radioligand displacement, [^3H]CP55940; set-up: species or system rat; conditions: read-out: Binding constant Ki, CB1 Receptor
# T1 construct: expressed in transfected cells
# T1 sequence (P21554 whole entry): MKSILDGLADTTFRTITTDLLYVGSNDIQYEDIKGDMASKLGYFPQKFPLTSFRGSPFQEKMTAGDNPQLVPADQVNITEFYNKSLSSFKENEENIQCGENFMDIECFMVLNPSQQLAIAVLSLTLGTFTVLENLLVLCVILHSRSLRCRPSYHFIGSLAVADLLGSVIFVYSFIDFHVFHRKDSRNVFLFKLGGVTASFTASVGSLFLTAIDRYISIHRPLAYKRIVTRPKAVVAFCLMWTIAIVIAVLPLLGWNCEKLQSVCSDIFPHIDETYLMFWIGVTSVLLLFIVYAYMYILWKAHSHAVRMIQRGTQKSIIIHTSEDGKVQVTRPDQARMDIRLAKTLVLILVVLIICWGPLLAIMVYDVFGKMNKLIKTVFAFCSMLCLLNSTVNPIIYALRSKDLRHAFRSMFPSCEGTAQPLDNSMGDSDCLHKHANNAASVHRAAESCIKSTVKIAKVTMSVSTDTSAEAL
# 5-HT1B (Serotonin Rs) = 5-HT1B (Serotonin Rs) (Homo sapiens, UniProt P28222); assay: PDSP radioligand binding
# 5-HT1B (Serotonin Rs), sequence (P28222 whole entry): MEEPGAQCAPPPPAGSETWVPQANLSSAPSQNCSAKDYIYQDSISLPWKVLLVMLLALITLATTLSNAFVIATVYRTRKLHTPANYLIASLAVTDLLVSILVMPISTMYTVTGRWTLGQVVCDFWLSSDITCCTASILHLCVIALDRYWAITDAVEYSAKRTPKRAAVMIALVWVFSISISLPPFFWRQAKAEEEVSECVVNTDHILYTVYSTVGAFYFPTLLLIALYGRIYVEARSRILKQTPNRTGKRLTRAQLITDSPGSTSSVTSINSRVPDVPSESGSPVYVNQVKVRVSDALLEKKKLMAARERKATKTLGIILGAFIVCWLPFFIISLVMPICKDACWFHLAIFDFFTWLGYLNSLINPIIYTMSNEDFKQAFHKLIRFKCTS
# [5] = target: T2, GABA-A receptors (α1, β2, γ2s subunits) (UniProt P18508+P47870+P62813); assay: Two-electrode voltage clamp, GABA-A receptors expressed in Xenopus oocytes; type: cell-based, rat α1 and γ2s, human β2; conditions: FIG. 4A
# T2 construct: expressed in transfected cells; host or cells: Xenopus laevis oocytes injected with capped cRNAs (α1:β2:γ2s 2:2:20 ng)
# T2 sequence (P62813 28-455): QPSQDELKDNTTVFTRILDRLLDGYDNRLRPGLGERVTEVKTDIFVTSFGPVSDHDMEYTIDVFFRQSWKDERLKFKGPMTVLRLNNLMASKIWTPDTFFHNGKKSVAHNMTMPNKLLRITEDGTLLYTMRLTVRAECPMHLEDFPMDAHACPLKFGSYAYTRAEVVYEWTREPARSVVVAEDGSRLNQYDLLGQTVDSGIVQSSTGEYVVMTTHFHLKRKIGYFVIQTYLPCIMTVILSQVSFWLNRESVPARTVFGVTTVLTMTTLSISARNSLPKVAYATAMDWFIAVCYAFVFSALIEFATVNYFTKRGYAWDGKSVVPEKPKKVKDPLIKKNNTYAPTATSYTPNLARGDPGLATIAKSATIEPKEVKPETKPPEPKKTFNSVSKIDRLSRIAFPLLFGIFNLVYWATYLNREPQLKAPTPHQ
# T2 sequence (P47870 26-474 isoform P47870-1 limits assumed): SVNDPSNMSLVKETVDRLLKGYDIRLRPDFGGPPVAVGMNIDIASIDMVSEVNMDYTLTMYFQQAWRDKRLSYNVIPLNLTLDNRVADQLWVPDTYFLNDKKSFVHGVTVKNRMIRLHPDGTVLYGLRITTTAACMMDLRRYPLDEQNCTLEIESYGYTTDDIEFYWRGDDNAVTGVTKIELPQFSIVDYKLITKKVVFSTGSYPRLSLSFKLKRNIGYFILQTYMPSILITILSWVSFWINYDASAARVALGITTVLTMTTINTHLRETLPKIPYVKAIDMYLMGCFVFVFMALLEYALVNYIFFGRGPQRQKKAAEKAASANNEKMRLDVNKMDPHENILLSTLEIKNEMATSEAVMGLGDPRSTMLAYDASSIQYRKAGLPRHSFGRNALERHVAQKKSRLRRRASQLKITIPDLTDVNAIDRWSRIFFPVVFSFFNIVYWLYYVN
# T2 sequence (P18508 39-466): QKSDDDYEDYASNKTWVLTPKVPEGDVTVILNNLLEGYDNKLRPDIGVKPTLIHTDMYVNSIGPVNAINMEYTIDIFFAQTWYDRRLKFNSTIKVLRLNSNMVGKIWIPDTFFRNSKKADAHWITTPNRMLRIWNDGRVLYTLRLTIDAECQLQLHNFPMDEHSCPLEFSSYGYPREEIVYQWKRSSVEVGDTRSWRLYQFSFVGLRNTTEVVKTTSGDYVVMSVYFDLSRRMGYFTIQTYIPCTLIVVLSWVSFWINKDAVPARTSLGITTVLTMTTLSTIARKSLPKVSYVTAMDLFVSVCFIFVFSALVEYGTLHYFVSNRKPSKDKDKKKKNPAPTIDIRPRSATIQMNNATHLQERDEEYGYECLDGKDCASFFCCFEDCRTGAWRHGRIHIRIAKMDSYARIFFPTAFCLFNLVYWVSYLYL
# Method: Xenopus laevis frogs were obtained from Nasco (Fort Atkinson, Wis., USA). The complementary DNAs encoding the GABAA subunits rat α1 and γ2s and human β2 were provided by Dr. M. H. Akabas and Dr. Paul Whiting, respectively. The in vitro transcription of α1, β2, and γ2s subunits was performed using mMessage mMachine® (Life Technologies, Grand Island, N.Y.). After isolation of Xenopus laevis oocytes, they were injected with capped complementary RNAs encoding α1, β2, and γ2s subunits in a ratio 2:2:20 ng. The injected oocytes were incubated at 15° C. in sterilized Barth's solution [MBS; composition: 88 mM NaCl, 1 mM KCl, 10 mM HEPES, 0.82 mM MgSO4, 2.4 mM NaHCO3, 0.91 mM CaCl2), and 0.33 mM Ca(NO3)2, pH 7.5] for 3-5 days before recording. All surgery was performed according to an approved institutional protocol. The responses of GABAARs expressed in oocytes were studied through two-electrode voltage clamp (Oocyte Clamp OC-725C, Warner Instruments, Hamden, Conn.), recording through a POWERLAB 4/30 system (ADInstruments, Colorado Springs, Colo.). The oocyte was placed in a chamber perfused with MBS, and voltage-clamped at −70 mV.
# D2 (Dopamine Rs), sequence (P14416 whole entry): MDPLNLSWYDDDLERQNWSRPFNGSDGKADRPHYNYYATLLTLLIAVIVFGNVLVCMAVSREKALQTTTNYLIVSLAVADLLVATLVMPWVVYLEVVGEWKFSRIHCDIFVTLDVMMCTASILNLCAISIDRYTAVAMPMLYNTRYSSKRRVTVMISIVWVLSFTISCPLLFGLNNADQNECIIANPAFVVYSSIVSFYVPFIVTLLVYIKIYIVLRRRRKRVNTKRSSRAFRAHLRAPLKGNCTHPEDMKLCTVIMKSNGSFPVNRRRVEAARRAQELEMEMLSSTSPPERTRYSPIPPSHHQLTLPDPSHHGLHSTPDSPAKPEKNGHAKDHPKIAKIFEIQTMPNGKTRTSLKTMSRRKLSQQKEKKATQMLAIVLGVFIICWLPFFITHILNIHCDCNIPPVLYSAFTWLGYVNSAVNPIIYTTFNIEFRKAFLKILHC
smiles,measurement,setting,value
"O=C(O)c1cc(NC(=O)N(c2ccccc2)c2ccccc2)c2c(Cl)cc(Cl)cc2n1 [DCUKA, 5,7-dichloro-4-(3,3-diphenylureido)quinoline-2-carboxylic acid]",Ki,[1],6.6 ± 1.8 µM
same,Ki,D2 (Dopamine Rs),> 10 µM
same,Mechanical pain threshold,[2],increased the pain threshold back to baseline level
same,Ki,[3],> 10 µM
same,Ki,D1 (Dopamine Rs),> 10 µM
same,Ki,[4],> 10 µM
same,Alcohol self-administration compared to baseline,ethanol dependent rats,no significant effect on repressing alcohol self-administration
same,Ki,5-HT3 (Serotonin Rs),> 10 µM
same,Ki,CB1 Receptor,11 ± 2.7 µM
same,Ki,5-HT1B (Serotonin Rs),> 10 µM
same,Character of action at the GABA-A receptor,[5],positive allosteric modulators (PAM)
same,GABA-induced chloride currents,[5]; co-applied with EC10 GABA,significantly enhanced GABA-induced currents
same,"Chloride currents, compound alone",[5]; without GABA,no effect on chloride currents by themselves
